The text below walks through data of paper PMC11673932, “A Novel Ginsenoside-Transforming α-L-Rhamnosidase from Bifidobacterium: Screening, Characterization and Application” (Biomolecules, 2024).

The subject of assay [1] is T1, C118 (GST-C118), alpha-L-rhamnosidase.
T1 construct: E. coli BL21(DE3); GH78 subfamily II; EC 3.2.1.40; predicted catalytic residues Glu478, Asp472, also W541, W600, L597, W532
Briefly: p-nitrophenol release, Michaelis-Menten fit. Format: biochemical, Bifidobacterium sp. The settings on record: pH 6.0, 45 °C; pNPR 0.1-5.0 mM; enzyme 0.62 mg/mL. An excerpt: p-nitrophenol release, Michaelis-Menten fit on C118 (GST-C118), alpha-L-rhamnosidase

Assay [2] has the same test system. The assay is described as follows: product (Rg1) quantified, Michaelis-Menten fit. Format: biochemical, Bifidobacterium sp. The settings on record: pH 6.0, 45 °C; Re 0.25-10.0 mg/mL; enzyme 0.62 mg/mL. An excerpt:
product (Rg1) quantified, Michaelis-Menten fit on C118 (GST-C118), alpha-L-rhamnosidase

Assay [3] concerns the target T2, BD890 (Bd890, BdRham) (Bifidobacterium dentium, UniProt D2Q797).
T2 construct: gene BDP_0161; GST-tag vector pBT7 (same expression system as C118), E. coli BL21(DE3), used as cell lysate; GH78
T2 sequence (D2Q797 1-890): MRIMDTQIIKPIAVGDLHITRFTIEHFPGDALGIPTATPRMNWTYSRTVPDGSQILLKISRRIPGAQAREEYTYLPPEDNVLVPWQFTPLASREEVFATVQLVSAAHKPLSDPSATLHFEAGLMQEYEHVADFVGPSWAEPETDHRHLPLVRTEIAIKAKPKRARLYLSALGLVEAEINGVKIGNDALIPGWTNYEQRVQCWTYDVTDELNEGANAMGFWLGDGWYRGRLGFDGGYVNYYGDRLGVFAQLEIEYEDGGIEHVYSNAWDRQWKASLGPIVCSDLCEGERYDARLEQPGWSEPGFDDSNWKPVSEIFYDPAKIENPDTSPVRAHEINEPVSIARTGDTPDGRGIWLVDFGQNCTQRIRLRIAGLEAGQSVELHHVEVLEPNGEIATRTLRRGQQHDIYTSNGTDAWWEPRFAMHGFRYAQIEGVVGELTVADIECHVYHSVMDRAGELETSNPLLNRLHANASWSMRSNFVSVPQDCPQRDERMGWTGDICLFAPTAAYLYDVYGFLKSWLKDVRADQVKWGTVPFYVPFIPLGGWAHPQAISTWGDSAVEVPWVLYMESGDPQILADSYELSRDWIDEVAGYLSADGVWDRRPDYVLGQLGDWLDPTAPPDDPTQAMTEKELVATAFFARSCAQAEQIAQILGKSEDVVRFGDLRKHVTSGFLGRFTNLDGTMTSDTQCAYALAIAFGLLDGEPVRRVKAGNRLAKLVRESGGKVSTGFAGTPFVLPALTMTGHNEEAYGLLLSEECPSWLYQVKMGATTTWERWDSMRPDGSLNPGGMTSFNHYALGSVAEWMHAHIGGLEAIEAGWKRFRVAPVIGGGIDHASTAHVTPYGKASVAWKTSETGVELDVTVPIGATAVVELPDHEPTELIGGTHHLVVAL
Briefly: conversion of Re to Rg1 in PPT-type ginsenoside mixture. The format is biochemical. The settings on record: cell lysate, 45 °C, Re 2.25 mg/mL in ginsenoside mixture.

In the case of `C[C@@H]1O[C@@H](Oc2ccc([N+](=O)[O-])cc2)[C@H](O)[C@H](O)[C@H]1O` [p-nitrophenyl-α-L-rhamnopyranoside], the Km in assay [1] was 2030 µM. `CC(C)=CCC[C@](C)(O[C@@H]1O[C@H](CO)[C@@H](O)[C@H](O)[C@H]1O)[C@H]1CC[C@]2(C)[C@@H]1[C@H](O)C[C@@H]1[C@@]3(C)CC[C@H](O)C(C)(C)[C@@H]3[C@@H](O[C@@H]3O[C@H](CO)[C@@H](O)[C@H](O)[C@H]3O[C@@H]3O[C@@H](C)[C@H](O)[C@@H](O)[C@H]3O)C[C@]12C` [Ginsenoside Re]: in assay [2], the Km was 544 µM. Also, in assay [3], the “% conversion after 12 h” value is 54%.

By Km is commonly meant the substrate concentration at which the rate is half of its maximum.
